These results are taken from patent US8557805B2, “Fused ring compound and use thereof” (Takeda Pharmaceutical Company Limited, priority 2008, dated 2013).

Data set [1] addresses T1, human liver GK (GST-hLGK1) (Homo sapiens, UniProt P35557).
T1 construct: with a BamHI site added to immediately before the initiation codon; made in house; host or cells: Escherichia coli BL21 (Stratagene), plasmid pGEX6P-2/hLGK1
T1 sequence (P35557 1-464 isoform P35557-3): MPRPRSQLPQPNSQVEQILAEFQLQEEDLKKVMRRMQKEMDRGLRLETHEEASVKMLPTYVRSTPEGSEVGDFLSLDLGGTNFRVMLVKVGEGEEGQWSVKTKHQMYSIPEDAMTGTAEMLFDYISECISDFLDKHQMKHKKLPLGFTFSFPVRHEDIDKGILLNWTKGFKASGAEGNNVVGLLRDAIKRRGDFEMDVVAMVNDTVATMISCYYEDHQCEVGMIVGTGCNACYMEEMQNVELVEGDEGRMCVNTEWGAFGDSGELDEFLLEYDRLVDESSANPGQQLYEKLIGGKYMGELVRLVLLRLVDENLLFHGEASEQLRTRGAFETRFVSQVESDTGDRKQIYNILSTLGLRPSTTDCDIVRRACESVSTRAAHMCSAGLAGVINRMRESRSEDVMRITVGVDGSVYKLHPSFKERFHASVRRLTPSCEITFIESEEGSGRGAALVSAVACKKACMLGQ
Briefly: Determination of GK activity value (Mant-ATP to Mant-ADP conversion, capillary electrophoresis). Type of data set: biochemical. To be noted: reaction started with 25 mM D-glucose solution, 37° C., 60 min, concentration at midpoint between maximum activity value and control group activity value. As to the method: Plasmid DNA to be used for the expression of a protein (GST-hLGK1) containing GST (Glutathione S-transferase) added to the amino terminal of human liver GK in Escherichia coli was prepared as follows.
First, PCR was performed using human liver cDNA (Marathon Ready cDNA, Clontech Laboratories, Inc.) as a template and two kinds of synthetic DNAs (5′-[…]-3′ (SEQ ID NO: 1) and 5′-[…]-3′ (SEQ ID NO: 2)), and the obtained DNA fragment was closed using a TOPO TA Cloning Kit (Invitrogen Corporation). PCR was performed using the obtained plasmid DNA as a template and a synthetic DNA (5′-[…] CAGAG-3′ (SEQ ID NO: 3)) with a BamHI site added to immediately before the initiation codon, and a synthetic DNA (5′-[…]-3′ (SEQ ID NO: 4)) with an EcoRI site added to immediately after the stop codon. The obtained DNA fragment was subcloned to pGEX6P-2 (Amersham Biosciences K.K.) cleaved with BamHI and EcoRI to give a plasmid (pGEX6P-2/hLGK1) for expression of human liver GK.
BL21 strain (Stratagene) transformed with pGEX6P-2/hLGK1 obtained in (1) was cultured with shaking at 37° C. for 14 hr in a 200 ml Erlenmeyer flask containing 50 ml of 100 μg/ml ampicillin-containing LB medium. The culture medium (25 ml) was diluted with 225 ml of 100 μg/ml ampicillin-containing LB medium, and further cultured with shaking at 37° C. for 1 hr in a 1 L Erlenmeyer flask. After culture, the Erlenmeyer flask was cooled on ice, 125 μL of 100 mM isopropyl-thio-β-D-galactopyranoside (IPTG) was added (final concentration 50 μM), and cultured at 17° C. for 20 hr. The culture medium was centrifuged, and the obtained fungus was disrupted by ultrasonication. The object protein (GST-hLGK1) was purified from the supernatant using Glutathione Sepharose 4B (Amersham Biosciences K.K.).
A solution (5 μL) of test compound in 50% dimethyl sulfoxide was added to each well of 384 well black plate (Nalge Nunc International K.K.). Then, a solution (35 μL) obtained by diluting GST-hLGK1 obtained in (2) with measurement buffer (containing 50 mM HEPES (pH 7.4), 200 mM KCl, 5 mM MgCl2, 2.5 mM DTT and 50 μM 2′-(or-3′)-O—(N-methylanthraniloyl)adenosine 5′-triphosphate (Mant-ATP) (Jena Bioscience GmbH)) to 6 μg/mL was added to each well.
Each well was stood at 37° C. for 10 min, and 25 mM D-glucose solution (10 μL) was added to start the reaction.
Each well after the reaction was stood at 37° C. for 60 min, and the reaction was quenched by adding 25 μL of a quenching solution (containing 200 mM HEPES (pH 7.4), 20 mM MgCl2, 200 mM EDTA, 0.03% Triton-X 100, 0.3% Coating 3 reagent (Caliper Life Sciences, Inc.)).
2′-(or -3′)-O—(N-methylanthraniloyl)adenosine 5′-triphosphate (Mant-ATP, substrate) and Mant-ADP (reaction resultant product) were separated from each well after the reaction by a microchip type capillary electrophoresis apparatus 250 HTS (Caliper Life Sciences, Inc.). The reaction rate [(reaction resultant product peak height)/(reaction resultant product peak height+substrate peak height)×100(%)] was calculated from the ratio of the substrate peak height and reaction resultant product peak height obtained by fluorescence detection (excitation wavelength 355 nm, measurement wavelength 460 nm) and used as the index of GK activity.
3.5 As a control group, the reaction rate was calculated in the same manner as above except that “solution in 50% dimethyl sulfoxide (without test compound)” was used instead of “solution of test compound in 50% dimethyl sulfoxide”.
A concentration dependency curve of the test compound was drawn with the percentage obtained by dividing the reaction rate of the well added with the test compound (test compound addition group) by the reaction rate of the control group was taken as the GK activity value of the test compound, and the concentration of the test compound at the midpoint between the maximum activity value of the test compound addition group and the control group activity value is shown as EC50 value.

One may read the EC50 as the concentration needed to bring the measured effect to its halfway point. The term melting point denotes the temperature, or range, at which the solid turns liquid.

Take `CS(=O)(=O)c1ccc(Oc2cc(OC3CCOCC3)c3[nH]c(C4=NCC(CC(=O)NC5CC5)S4)cc3c2)cn1` (centres unmarked) [Example 37, N-Cyclopropyl-2-{2-[5-{[6-(methylsulfonyl)pyridin-3-yl]oxy}-7-(tetrahydro-2H-pyran-4-yloxy)-1H-indol-2-yl]-4,5-dihydro-1,3-thiazol-5-yl}acetamide]: the melting point was in the range of 175 to 176 °C. Further, the midpoint of the response in data set [1], the EC50, lay at 16 nM.
Compound `CCNC(=O)CC1CN=C(c2cc3cc(Oc4ccc(S(C)(=O)=O)nc4)cc(OC4CCOCC4)c3[nH]2)S1` (centres unmarked) [Example 42, N-Ethyl-2-{2-[5-{[6-(methylsulfonyl)pyridin-3-yl]oxy}-7-(tetrahydro-2H-pyran-4-yloxy)-1H-indol-2-yl]-4,5-dihydro-1,3-thiazol-5-yl}acetamide] had a melting point of 197 to 198 °C. In data set [1], this compound showed an EC50 of 21 nM.
`CNC(=O)CC1CN=C(c2cc3cc(Oc4ccc(S(C)(=O)=O)nc4)ccc3[nH]2)S1` (centres unmarked) [Example 53, N-Methyl-2-[2-(5-{[6-(methylsulfonyl)pyridin-3-yl]oxy}-1H-indol-2-yl)-4,5-dihydro-1,3-thiazol-5-yl]acetamide] yielded a melting point of 150 to 152 °C. In data set [1], this compound yielded an EC50 of 130 nM.
As to `CCNC(=O)CC1CN=C(c2cc3cc(Oc4ccc(S(C)(=O)=O)nc4)ccc3[nH]2)S1` (centres unmarked) [Example 54, N-Ethyl-2-[2-(5-{[6-(methylsulfonyl)pyridin-3-yl]oxy}-1H-indol-2-yl)-4,5-dihydro-1,3-thiazol-5-yl]acetamide], the melting point lay in the range of 216 to 217 °C. This compound showed a 50% effective concentration (EC50) in data set [1] of 120 nM.
In turn, `CN(C)C(=O)CC1CN=C(c2cc3cc(Oc4ccc(S(C)(=O)=O)nc4)ccc3[nH]2)S1` (centres unmarked) [Example 55, N,N-Dimethyl-2-[2-(5-{[6-(methylsulfonyl)pyridin-3-yl]oxy}-1H-indol-2-yl)-4,5-dihydro-1,3-thiazol-5-yl]acetamide] displayed a melting point of 162 to 164 °C. In addition, a half-maximal effect in data set [1] (EC50) was put at 180 nM.
Turning to `CS(=O)(=O)c1ccc(Oc2ccc3[nH]c(C4=NCC(CC(=O)NCC(F)(F)F)S4)cc3c2)cn1` (centres unmarked) [Example 56, 2-[2-(5-{[6-(Methylsulfonyl)pyridin-3-yl]oxy}-1H-indol-2-yl)-4,5-dihydro-1,3-thiazol-5-yl]-N-(2,2,2-trifluoroethyl)acetamide], the melting point is 234 to 235 °C. In data set [1], this compound returned an EC50 of 73 nM.
The matching figures for `COCCNC(=O)CC1CN=C(c2cc3cc(Oc4ccc(S(C)(=O)=O)nc4)ccc3[nH]2)S1` (centres unmarked) [Example 57, N-(2-Methoxyethyl)-2-[2-(5-{[6-(methylsulfonyl)pyridin-3-yl]oxy}-1H-indol-2-yl)-4,5-dihydro-1,3-thiazol-5-yl]acetamide]: 155 to 156 °C and 160 nM.
The matching figures for `CS(=O)(=O)c1ccc(Oc2ccc3[nH]c(C4=NCC(CC(=O)N5CCOCC5)S4)cc3c2)cn1` (centres unmarked) [Example 58, 5-{[6-(Methylsulfonyl)pyridin-3-yl]oxy}-2-[5-(2-morpholin-4-yl-2-oxoethyl)-4,5-dihydro-1,3-thiazol-2-yl]-1H-indole]: 190 to 191 °C and 120 nM.
For `CCc1cc(Oc2ccc(S(C)(=O)=O)nc2)cc2cc(C3=NCC(CC(N)=O)S3)[nH]c12` (centres unmarked) [Example 61, 2-[2-(7-Ethyl-5-{[6-(methylsulfonyl)pyridin-3-yl]oxy}-1H-indol-2-yl)-4,5-dihydro-1,3-thiazol-5-yl]acetamide], in that order: 190 to 191 °C and 16 nM.
Consider `Cc1cc(Oc2ccc(S(C)(=O)=O)nc2)cc2cc(C3=NCC(CC(N)=O)S3)[nH]c12` (centres unmarked) [Example 72, 2-[2-(7-Methyl-5-{[6-(methylsulfonyl)pyridin-3-yl]oxy}-1H-indol-2-yl)-4,5-dihydro-1,3-thiazol-5-yl]acetamide], for which the melting point was 202 to 203 °C. For the same compound, the EC50 in data set [1] worked out at 29 nM.
